The values below come from US11820835B2, “Cyclic tetrapeptide analogs” (University of Kansas, priority 2018, dated 2023).

Where two headings read alike, the source gives them in different places. Non-standard residues stand in square brackets, D forms with d. Residues, ends and D or L forms follow the SMILES beside them. 2Pal = N[C@@H](Cc1ccccn1)C(=O)O; 3Pal = N[C@@H](Cc1cccnc1)C(=O)O; 4Pal = N[C@@H](Cc1ccncc1)C(=O)O

Data set [1] has as its system kappa opioid receptor (KOR). Conditions: cited from earlier work.
The target in data set [2] is KOR (kappa opioid receptor) (Homo sapiens, UniProt P41145). Briefly: Radioligand binding assay, KOR affinity. The settings on record: for Selectivity (KOR/MOR): ratio of KOR and MOR Ki; for Ki: read-out: KOR Ki (nM ± SEM). On the procedure:
(§1) The analogs were evaluated in vivo in an analgesic assay (mouse 55° C. warm-water tail withdrawal assay) for opioid agonist and antagonist activity. Representative analogs were evaluated in a conditioned place preference (CPP) assay for their ability to prevent stress-induced relapse to cocaine-seeking behavior. Further, representative analogs were evaluated for opioid receptor affinity in radioligand binding assays (Table 2).

Data set [3] relates to mice. Conditions: p.o., CPP assay; Eans et al., 2013; cited from earlier work.
For data set [4], the target named is T1, kappa opioid receptor (KOR) (Mus musculus, UniProt P33534).
T1 construct: from tissue; host or cells: living mouse (in vivo; CNS)
The settings on record: p.o.; Eans et al., 2013; cited from earlier work.

In data set [5] the target is MOR (mu opioid receptor) (Homo sapiens, UniProt P35372). As to the kind of experiment: Radioligand binding assay, MOR affinity. Conditions: read-out: MOR Ki (nM ± SEM). As for the experimental part:
as §1

A short description of data set [6]: Locomotion following oral administration. Type of data set: in vivo. The settings on record: 10 or 30 mg/kg p.o. An excerpt:
(§2) FIGS. 6A-B provides the results of studies on locomotion and respiration following oral administration of JVA-3620.
(§3) FIG. 7A-B provides the results of studies on locomotion and respiration following oral administration of JVA-3628.

For data set [7], the system named is mice. Briefly: Conditioned place preference (CPP) assay, stress-induced relapse to cocaine-seeking behavior. In kind it is in vivo, mouse. Conditions: p.o. As for the experimental part:
as §1

Data set [8] addresses T1, kappa opioid receptor (KOR). Briefly: Mouse 55° C. warm-water tail withdrawal assay, opioid antagonist activity (antagonism of KOR agonist U50,488). In kind it is in vivo. Conditions: for duration of KOR antagonism of centrally administered U50,488: 30 mg/kg p.o.; for selectivity of opioid antagonism (KOR vs. MOR and DOR agonists): U50,488, morphine, SNC-80; for antagonism of centrally (i.c.v.) administered KOR agonist U50,488: peptide given orally. On the procedure:
as §1

A short description of data set [9]: Respiration following oral administration. The settings on record: 10 or 30 mg/kg p.o. In kind it is in vivo.
From the text: as §2, §3

The subject of data set [10] is mice. As to the kind of experiment: Mouse 55° C. warm-water tail withdrawal assay, antinociception (opioid agonist activity). In kind it is in vivo. On the procedure:
as §1

T1 sequence (P33534 whole entry): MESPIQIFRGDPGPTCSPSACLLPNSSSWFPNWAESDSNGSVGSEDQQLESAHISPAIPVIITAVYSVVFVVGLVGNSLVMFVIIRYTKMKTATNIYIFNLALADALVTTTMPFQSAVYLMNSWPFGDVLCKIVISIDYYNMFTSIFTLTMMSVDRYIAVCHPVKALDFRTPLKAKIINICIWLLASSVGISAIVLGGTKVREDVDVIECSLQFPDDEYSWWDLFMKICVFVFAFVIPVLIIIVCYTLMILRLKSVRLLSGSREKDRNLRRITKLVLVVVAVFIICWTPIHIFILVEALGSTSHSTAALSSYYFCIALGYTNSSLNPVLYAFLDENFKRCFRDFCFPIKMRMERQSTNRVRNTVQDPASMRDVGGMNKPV
MOR (mu opioid receptor), sequence (P35372 whole entry): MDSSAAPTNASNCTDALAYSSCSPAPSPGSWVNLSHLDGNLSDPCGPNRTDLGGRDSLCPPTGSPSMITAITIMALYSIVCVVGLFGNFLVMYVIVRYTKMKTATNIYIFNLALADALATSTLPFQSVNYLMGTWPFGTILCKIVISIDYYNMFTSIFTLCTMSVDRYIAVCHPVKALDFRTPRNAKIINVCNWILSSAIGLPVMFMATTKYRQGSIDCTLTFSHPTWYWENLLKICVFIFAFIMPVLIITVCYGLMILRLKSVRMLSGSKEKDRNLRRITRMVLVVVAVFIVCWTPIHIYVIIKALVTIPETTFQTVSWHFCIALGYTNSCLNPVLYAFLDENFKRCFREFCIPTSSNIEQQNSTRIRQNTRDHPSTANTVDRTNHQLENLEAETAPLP
KOR (kappa opioid receptor), sequence (P41145 whole entry): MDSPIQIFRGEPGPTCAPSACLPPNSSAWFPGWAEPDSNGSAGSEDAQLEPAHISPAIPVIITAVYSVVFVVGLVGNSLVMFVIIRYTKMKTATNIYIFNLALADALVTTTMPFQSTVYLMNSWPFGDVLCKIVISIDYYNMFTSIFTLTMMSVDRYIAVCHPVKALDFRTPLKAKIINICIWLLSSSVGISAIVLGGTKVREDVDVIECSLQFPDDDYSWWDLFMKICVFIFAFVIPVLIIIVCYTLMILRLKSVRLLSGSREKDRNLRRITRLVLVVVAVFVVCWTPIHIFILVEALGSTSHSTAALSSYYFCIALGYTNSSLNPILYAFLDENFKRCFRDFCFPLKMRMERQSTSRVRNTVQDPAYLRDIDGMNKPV

As to `CC(C)[C@@H](CN1CC[C@@](C)(c2cccc(O)c2)[C@@H](C)C1)NC(=O)[C@H]1Cc2ccc(O)cc2CN1` [JDTic], the “duration of activity after a single dose” value in data set [1] (in vivo) is reported as “weeks in some species”.

Usually Ki stands for a dissociation constant, usually derived from enzyme kinetics or from competition with a known ligand. Regarding `O=C1N[C@H](Cc2c[nH]c3ccccc23)C(=O)N[C@@H](Cc2ccccc2)C(=O)N2CCC[C@@H]2C(=O)N[C@H]1Cc1ccccc1` [JVA-2802, cyclo[Phe′-D-Pro-Phe^3-D-Trp^4]] (cyclo(F[dP]F[dW])), in data set [2], the “Selectivity (KOR/MOR)” value is recorded as 1/12 and the inhibition constant (Ki) came out at 21.8 nM. Also, the duration of action in [1] (Ross et al., 2012, Eans et al., 2013) was below 18 h. Further, the “oral dose preventing stress-induced relapse of cocaine-seeking behavior” value in data set [3] is on record as 60 mg/kg. For the same compound, the “oral dose required to significantly antagonize centrally administered U50,488” value in data set [4] was 30 mg/kg.

Consider `O=C1N[C@H](Cc2ccccc2)C(=O)N[C@@H](Cc2ccccc2)C(=O)N2CCC[C@@H]2C(=O)N[C@H]1Cc1ccccc1` [JVA-3620] (cyclo(F[dP]F[dF])), for which, in [2], the “Selectivity (KOR/MOR)” value is 1/38 and the Ki came to 28.9 ± 4.9 nM. For the same compound, the inhibitory constant (Ki) in data set [5] came out at 1100 ± 80 nM. Also, the locomotion entry in data set [6] is “does not produce hyperlocomotion like morphine, but instead can significantly decrease locomotion during the first hour”. The “oral dose preventing stress-induced relapse of cocaine-seeking behavior” value in data set [7] turned out to be 30 mg/kg. In data set [8], the “duration of KOR antagonism of centrally administered U50,488” value lay in the range of 6 to 12 h; the “selectivity of opioid antagonism (KOR vs. MOR and DOR agonists)” value (from here on “selectivity of opioid antagonism”) was “selectively antagonized the KOR agonist U50,488, but not the mu opioid receptor agonist morphine or the delta opioid receptor antagonist SNC-80”; the “antagonism of centrally (i.c.v.) administered KOR agonist U50,488” value is “antagonized centrally (i.c.v.) administered KOR agonist”. In addition, the KOR antagonism entry in data set [8] (i.c.v. administration) was “exhibited KOR antagonism”. Besides, in data set [8] (oral (p.o.) administration), the KOR antagonism result is recorded as “exhibited KOR antagonism”. In [8] (p.o.), the “oral dose required to significantly antagonize centrally administered U50,488” value worked out at 10 mg/kg. In data set [9], the respiration entry is “decreases respiration during the first hour”.

Consider `O=C1N[C@H](Cc2c[nH]c3ccccc23)C(=O)N[C@@H](Cc2c[nH]cn2)C(=O)N2CCC[C@@H]2C(=O)N[C@H]1Cc1ccccc1` [JVA-3622] (cyclo(H[dP]F[dW])), for which the figures for the Ki in data set [2] and in data set [5] were 667 ± 470 nM and 2500 ± 510 nM, respectively.

Take `O=C1N[C@H](Cc2c[nH]c3ccccc23)C(=O)N[C@@H](Cc2ccccc2)C(=O)N2CCC[C@@H]2C(=O)N[C@H]1Cc1c[nH]cn1` [JVA-3623] (cyclo(F[dP]H[dW])): the Ki was determined as 67.7 ± 9.2 nM in [2] and 366 ± 98 nM in [5].

For the compound `O=C1N[C@H](Cc2c[nH]c3ccccc23)C(=O)N[C@@H](Cc2ccccc2)C(=O)N2CCC[C@@H]2C(=O)N[C@H]1Cc1cccnc1` [JVA-3624] (cyclo(F[dP][3Pal][dW])), the “Selectivity (KOR/MOR)” value in [2] is 1/23. Moreover, the results for the Ki in [2] and in data set [5] were 8.34 ± 1.48 nM and 191 ± 39 nM, respectively. The KOR antagonism result in [8] (i.c.v. administration) is “not KOR antagonism”. Besides, the “antinociception ED50” value in data set [10] (i.c.v.) came to 1.13 nmol. For the same compound, the “antinociception (agonist activity)” value in [10] (i.c.v. administration) is reported as “exhibits antinociception”.

On to `O=C1N[C@H](Cc2c[nH]c3ccccc23)C(=O)N[C@@H](Cc2ccccc2)C(=O)N2CCC[C@@H]2C(=O)N[C@H]1Cc1ccncc1` [JVA-3625] (cyclo(F[dP][4Pal][dW])), for which, in data set [2], the “Selectivity (KOR/MOR)” value is 1/12 and the Ki came out at 30.7 ± 6.8 nM. Also, in data set [5], the Ki is 371 ± 81 nM.

`O=C1N[C@H](Cc2c[nH]c3ccccc23)C(=O)N[C@@H](Cc2ccccc2)C(=O)N2CCC[C@@H]2C(=O)N[C@H]1Cc1ccccn1` [JVA-3626] (cyclo(F[dP][2Pal][dW])): in data set [2], the “Selectivity (KOR/MOR)” value was 1/20 and the Ki is 82.3 ± 13.8 nM. In addition, in [5], the Ki is 1610 ± 590 nM.

For the compound `O=C1N[C@H](Cc2c[nH]c3ccccc23)C(=O)N[C@@H](Cc2ccccn2)C(=O)N2CCC[C@@H]2C(=O)N[C@H]1Cc1ccccc1` [JVA-3627] (cyclo([2Pal][dP]F[dW])), in data set [2], the “Selectivity (KOR/MOR)” value is on record as 1/43 and the Ki worked out at 58.4 ± 9.3 nM. The Ki in [5] stood at 2530 ± 460 nM.

Take `O=C1N[C@H](Cc2c[nH]c3ccccc23)C(=O)N[C@@H](Cc2cccnc2)C(=O)N2CCC[C@@H]2C(=O)N[C@H]1Cc1ccccc1` [JVA-3628] (cyclo([3Pal][dP]F[dW])): in [2], the “Selectivity (KOR/MOR)” value was 1/24 and the Ki was 41.8 ± 16.3 nM. Also, in data set [5], the Ki came out at 988 ± 146 nM. Moreover, the locomotion result in [6] is reported as “does not produce hyperlocomotion like morphine, but instead can significantly decrease locomotion during the first hour”. Also, the “oral dose preventing stress-induced relapse of cocaine-seeking behavior” value in data set [7] is listed as 30 mg/kg. Also, in data set [8], the “duration of KOR antagonism of centrally administered U50,488” value was 12 to 24 h; the “selectivity of opioid antagonism” value is “opioid antagonism is selective for KOR”; the “antagonism of centrally (i.c.v.) administered KOR agonist U50,488” value is “exhibits kappa opioid receptor (KOR) antagonism of centrally administered KOR agonist activity”. Also, in data set [8] (i.c.v. administration), the KOR antagonism result is “selective KOR antagonism”. In data set [8] (oral (p.o.) administration), the KOR antagonism entry was “antagonizing both peripherally and administered KOR agonist”. Besides, the respiration result in data set [9] is recorded as “decreases respiration during the first hour”.

As for `O=C1N[C@H](Cc2c[nH]c3ccccc23)C(=O)N[C@@H](Cc2ccncc2)C(=O)N2CCC[C@@H]2C(=O)N[C@H]1Cc1ccccc1` [JVA-3629] (cyclo([4Pal][dP]F[dW])), in [2], the “Selectivity (KOR/MOR)” value is on record as 1/86 and the Ki was determined as 32 ± 4.1 nM. The Ki in [5] came out at 2740 ± 310 nM.

[D-2′-Pal^4]CJ-15,208 [JVA-3671]: in [8] (i.c.v. administration), the KOR antagonism entry is given as “exhibits KOR antagonist activity”. Moreover, in [10] (i.c.v. administration), the “antinociception (agonist activity)” value is “exhibits antinociception” and the “opioid receptor mediating the antinociception” value is recorded as “mediated by delta opioid receptors (DOR)”.

On to [D-Bip^4]CJ-15,208 [JVA-3667], for which the “selectivity of opioid antagonism” value in [8] is on record as “selective for KOR”. Besides, the results for the KOR antagonism entry in [8] (i.c.v. administration) and in [8] (oral (p.o.) administration) were “weak KOR antagonist” and “only KOR antagonism”, respectively. Also, the “antinociception (agonist activity)” value in data set [10] (i.c.v. administration) is “agonist”.

With [D-His^4]CJ-15,208 [JVA-3670], the KOR antagonism result is recorded as “not KOR antagonist” in data set [8] (i.c.v. administration) and “only KOR antagonism” in data set [8] (oral (p.o.) administration). Besides, the “antinociception (agonist activity)” value in [10] (i.c.v. administration) is reported as “agonist”.

On to [D-Tyr^4]CJ-15,208 [JVA-3669], for which, in data set [8] (i.c.v. administration), the KOR antagonism result is “not KOR antagonist”. In addition, the “antinociception (agonist activity)” value in [10] (i.c.v. administration) is reported as “agonist”.

On to [D-hPhe^4]CJ-15,208 [JVA-3668], for which the KOR antagonism entry in data set [8] (i.c.v. administration) is recorded as “not KOR antagonist”. Further, the “antinociception (agonist activity)” value in [10] (i.c.v. administration) was “agonist”.
